# Literature values, collected in patent publication US10342765B2, “Therapeutic compositions comprising monoterpenes” (priority 2009, dated 2019).
# Entries after “also recorded” stand apart in the source; their conditions may differ.
# Key:
# malignant gliomas = conditions: patients with malignant gliomas; nasal inhalation
# [1] = nasal inhalation; nasal inhaler four times daily
# [2] = tested on: systemic malignancies including breast, lung, pancreatic, melanomas
structure (smiles),measurement,setting,value
"C=C(C)[C@@H]1CC=C(CO)CC1 [POH, perillyl alcohol]",tumor size (radiographic),malignant gliomas,radiographic reduction in tumor size
same,tolerability in patients,[1],"safely tolerated; also recorded: well tolerated, with minimal side effects"
same,effectiveness against systemic malignancies,[2],effective
